We go through two substances from patent US7534576B2, “Method and a device for the evaluation of biopolymer fitness” (Olympus Corporation, priority 1993, dated 2009).

Data set [1] has as its system viral single-strand DNA of bacteriophage M13 (M13mp18 (+) DNA). Description: FCS of association of Bodipy-labeled primer with M13 single-strand DNA in solution. In kind it is binding. The note with it: 40° C. On the procedure: The oligonucleotide is labeled with Bodipy (Molecular Probes) at the 5′-C6 position. The course of the association reaction with time was measured according to the invention in solution at 40° C. The solution contained 50 nM oligonucleotide, 50 nM of M13mp18 (+) DNA in […] tris buffer, pH 7.5, and 0.18 M sodium chloride. […] Autocorrelation was determined after 0, 0.5, 1, 2, 4, 8, 16, 32, 64, 128, 192, and 256 minutes. The diffusion time of the free primer is 0.17 ms, and 2.9 ms when complex-bound. […] A reassocation rate of 0.07 min^−1 results.

The next data set concerns the target T1, EGF receptor (Rattus norvegicus, UniProt G3V6K6).
T1 construct: endogenous in cells; host or cells: NBD2 rat bladder cells (tumor-derived)
Briefly: FCS of tetramethylrhodamine-labeled EGF associating with cell-bound EGF receptor at the outer cell membrane. Type of data set: binding. From the text:
(§1) FIGS. 26 to 28 show the use of the FCS method according to the invention • (i) for the determination of the behavior of a fluorescence labeled ligand with respect to association with a receptor of the outer cell membrane, • (ii) for distinguishing between bound and free ligand, and/or • (iii) for measuring ligand mobility in the case of a passage into the cytosol.
The cells are surface-fixed on Petri dishes in PBS buffer (phosphate buffered saline). […] For excitation, laser light of 500 nm wavelength of an argon laser (0.5 mW) had been chosen. […] Its concentration was 6 nM.

The next data set concerns NBD2 rat bladder cells. Description: FCS of internalized EGF mobility with the measuring volume in the cytosol. In kind it is cell-based. To be noted: FIG. 27.
From the text: as §1
The cells are surface-fixed on Petri dishes in PBS buffer (phosphate buffered saline). They had been grown beforehand in standard medium until a confluent monolayer had been reached. The medium contained EGF labeled with tetramethylrhodamine. For excitation, laser light of 500 nm wavelength of an argon laser (0.5 mW) had been chosen. […] Its concentration was 6 nM.

{Bodipy-C6} = Bodipy fluorophore attached via a 5'-C6 linker

With “5′-TGACCGGCAGCAAAATGT-3′ (DNA, 5' {Bodipy-C6}, backbone not given here) [M13/pUC (−21) primer, DNA oligonucleotide primer complementary to bacteriophage M13 single-strand DNA]”, the reassocation rate in data set [1] (50 nM oligonucleotide, 50 nM M13mp18 (+) DNA, FIG. 29) is 0.07 min⁻¹. Also, the “diffusion time of the free primer” value in data set [1] (10 nM tris buffer pH 7.5, 0.18 M sodium chloride) is given as 0.17 ms. Also, in data set [1] (bound to M13 DNA), the “diffusion time of primer when complex-bound” value is on record as 2.9 ms.
For human epidermal growth factor (EGF), in the data set with EGF receptor (after 30 minutes of washing, FIG. 26c), the “EGF receptors per measuring volume still retaining the ligand bound with high affinity” value is listed as “about 0.5”. Further, in the data set with EGF receptor (free EGF, 6 nM, PBS, FIG. 26a), the “τDfree of free EGF factor (printed as rotational diffusion coefficient)” value is recorded as 0.145 ms. The “diffusion time τDcomplex of receptor bound complex” value with EGF receptor (receptor bound in cell membrane, FIG. 26b) was determined as 14.54 ms. Also, the “internalized EGF with the same mobility as the free factor” value in the data set with NBD2 rat bladder cells (cytosol) came out at 62%. For the same substance, the “internalized EGF hindered in mobility” value in the data set with NBD2 rat bladder cells (measuring volume within the cytosol) stood at 38%.
